Test system: COR L88 complex tumor spheroid viability
Experiment: Anticancer human tumor COR L88 cell line growth inhibition;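 also: compound exposure lasted 7 days before viability readout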;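 as to viability, T/C: percent of DMSO vehicle-treated spheroids = 100%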
Settings: for IC50: curve of first compound; for viability, T/C: stronger effect = lower value; active = viability on the fitted dose curve at most 10% of control; inactive = the rest
Method in brief: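 Complex tumor spheroids combined malignant cells with endothelial cells and mesenchymal stem cells. DNA-damaging drugs and DNA repair inhibitors were tested alone and in combination, at half-log dilutions down from clinical Cmax (top 10 microM if Cmax unknown), 0.25% DMSO final.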

CNCc1ccc(-c2cc(-c3nc(-c4ccc(S(=O)(=O)C(C)C)cc4)cnc3N)on2)cc1 + CC[C@@]1(O)C(=O)OCc2c1cc1n(c2=O)Cc2cc3c(CN(C)C)c(O)ccc3nc2-1
497 nM: IC50 (second compound 0.003 µM)
< 9.49 nM: IC50 (second compound 0.3 µM)
22.6 nM: IC50 (second compound 0.0949 µM)
active: viability, T/C (second compound 0.3 µM, first compound 0.3 µM) 9.3% | viability, T/C (second compound 0.3 µM, first compound 0.949 µM) 7.79% | viability, T/C (second compound 0.3 µM, first compound 3 µM) 5.02%
393 nM: IC50 (second compound 0.00949 µM)
149 nM: IC50 (second compound 0.03 µM)
inactive: viability, T/C (second compound 0.003 µM, first compound 0.00949 µM) 94.4% | viability, T/C (second compound 0.003 µM, first compound 0.03 µM) 102% | viability, T/C (second compound 0.003 µM, first compound 0.0949 µM) 105% | viability, T/C (second compound 0.003 µM, first compound 0.3 µM) 64.2% | viability, T/C (second compound 0.003 µM, first compound 0.949 µM) 30.1% | viability, T/C (second compound 0.003 µM, first compound 3 µM) 9.59% | viability, T/C (second compound 0.00949 µM, first compound 0.00949 µM) 103% | viability, T/C (second compound 0.00949 µM, first compound 0.03 µM) 99.7% | viability, T/C (second compound 0.00949 µM, first compound 0.0949 µM) 88.2% | viability, T/C (second compound 0.00949 µM, first compound 0.3 µM) 53.7% | viability, T/C (second compound 0.00949 µM, first compound 0.949 µM) 30% | viability, T/C (second compound 0.00949 µM, first compound 3 µM) 9.92% | viability, T/C (second compound 0.03 µM, first compound 0.00949 µM) 60.8% | viability, T/C (second compound 0.03 µM, first compound 0.03 µM) 63.6% | viability, T/C (second compound 0.03 µM, first compound 0.0949 µM) 62.6% | viability, T/C (second compound 0.03 µM, first compound 0.3 µM) 32.5% | viability, T/C (second compound 0.03 µM, first compound 0.949 µM) 17.3% | viability, T/C (second compound 0.03 µM, first compound 3 µM) 9.44% | viability, T/C (second compound 0.0949 µM, first compound 0.00949 µM) 55.3% | viability, T/C (second compound 0.0949 µM, first compound 0.03 µM) 49.5% | viability, T/C (second compound 0.0949 µM, first compound 0.0949 µM) 24.9% | viability, T/C (second compound 0.0949 µM, first compound 0.3 µM) 16.2% | viability, T/C (second compound 0.0949 µM, first compound 0.949 µM) 11.7% | viability, T/C (second compound 0.0949 µM, first compound 3 µM) 7.2% | viability, T/C (second compound 0.3 µM, first compound 0.00949 µM) 43% | viability, T/C (second compound 0.3 µM, first compound 0.03 µM) 29.2% | viability, T/C (second compound 0.3 µM, first compound 0.0949 µM) 14.9%

Cn1ncnc1[C@H]1c2n[nH]c(=O)c3cc(F)cc(c23)N[C@@H]1c1ccc(F)cc1 + Cn1nnc2c(C(N)=O)ncn2c1=O
< 9.49 nM: IC50 (second compound 31.6 µM) | IC50 (second compound 100 µM)
inactive: viability, T/C (second compound 1 µM, first compound 0.00949 µM) 79.6% | viability, T/C (second compound 1 µM, first compound 0.03 µM) 74% | viability, T/C (second compound 1 µM, first compound 0.0949 µM) 58.4% | viability, T/C (second compound 1 µM, first compound 0.3 µM) 45.8% | viability, T/C (second compound 1 µM, first compound 0.949 µM) 39.8% | viability, T/C (second compound 1 µM, first compound 3 µM) 36.3% | viability, T/C (second compound 3.16 µM, first compound 0.00949 µM) 79.4% | viability, T/C (second compound 3.16 µM, first compound 0.03 µM) 65.2% | viability, T/C (second compound 3.16 µM, first compound 0.0949 µM) 51.1% | viability, T/C (second compound 3.16 µM, first compound 0.3 µM) 45.3% | viability, T/C (second compound 3.16 µM, first compound 0.949 µM) 38.5% | viability, T/C (second compound 3.16 µM, first compound 3 µM) 39.1% | viability, T/C (second compound 10 µM, first compound 0.00949 µM) 58.6% | viability, T/C (second compound 10 µM, first compound 0.03 µM) 54.8% | viability, T/C (second compound 10 µM, first compound 0.0949 µM) 45.9% | viability, T/C (second compound 10 µM, first compound 0.3 µM) 43.1% | viability, T/C (second compound 10 µM, first compound 0.949 µM) 40.8% | viability, T/C (second compound 10 µM, first compound 3 µM) 36.3% | viability, T/C (second compound 31.6 µM, first compound 0.00949 µM) 50.2% | viability, T/C (second compound 31.6 µM, first compound 0.03 µM) 46.1% | viability, T/C (second compound 31.6 µM, first compound 0.0949 µM) 44.2% | viability, T/C (second compound 31.6 µM, first compound 0.3 µM) 39.4% | viability, T/C (second compound 31.6 µM, first compound 0.949 µM) 38.9% | viability, T/C (second compound 31.6 µM, first compound 3 µM) 30.1% | viability, T/C (second compound 100 µM, first compound 0.00949 µM) 44.4% | viability, T/C (second compound 100 µM, first compound 0.03 µM) 41.8% | viability, T/C (second compound 100 µM, first compound 0.0949 µM) 35.1% | viability, T/C (second compound 100 µM, first compound 0.3 µM) 35.1% | viability, T/C (second compound 100 µM, first compound 0.949 µM) 32.6% | viability, T/C (second compound 100 µM, first compound 3 µM) 33.3%
124 nM: IC50 (second compound 3.16 µM)
205 nM: IC50 (second compound 1 µM)
57.7 nM: IC50 (second compound 10 µM)

COc1ccc([C@@H](O)c2cc(-c3ncnc4cc(N5CCOCC5)ccc34)c(F)cc2Cl)nn1 + Cn1nnc2c(C(N)=O)ncn2c1=O
inactive: viability, T/C (second compound 1 µM, first compound 0.0316 µM) 96.4% | viability, T/C (second compound 1 µM, first compound 0.1 µM) 94.1% | viability, T/C (second compound 1 µM, first compound 0.316 µM) 82% | viability, T/C (second compound 1 µM, first compound 1 µM) 78.3% | viability, T/C (second compound 1 µM, first compound 3.16 µM) 61.4% | viability, T/C (second compound 1 µM, first compound 10 µM) 36.7% | viability, T/C (second compound 3.16 µM, first compound 0.0316 µM) 92.8% | viability, T/C (second compound 3.16 µM, first compound 0.1 µM) 104% | viability, T/C (second compound 3.16 µM, first compound 0.316 µM) 90.9% | viability, T/C (second compound 3.16 µM, first compound 1 µM) 88.2% | viability, T/C (second compound 3.16 µM, first compound 3.16 µM) 64.3% | viability, T/C (second compound 3.16 µM, first compound 10 µM) 47.2% | viability, T/C (second compound 10 µM, first compound 0.0316 µM) 87% | viability, T/C (second compound 10 µM, first compound 0.1 µM) 98.7% | viability, T/C (second compound 10 µM, first compound 0.316 µM) 92% | viability, T/C (second compound 10 µM, first compound 1 µM) 75.1% | viability, T/C (second compound 10 µM, first compound 3.16 µM) 67.9% | viability, T/C (second compound 10 µM, first compound 10 µM) 54.6% | viability, T/C (second compound 31.6 µM, first compound 0.0316 µM) 89.3% | viability, T/C (second compound 31.6 µM, first compound 0.1 µM) 79.9% | viability, T/C (second compound 31.6 µM, first compound 0.316 µM) 84.6% | viability, T/C (second compound 31.6 µM, first compound 1 µM) 73.9% | viability, T/C (second compound 31.6 µM, first compound 3.16 µM) 67.2% | viability, T/C (second compound 31.6 µM, first compound 10 µM) 51.3% | viability, T/C (second compound 100 µM, first compound 0.0316 µM) 69.9% | viability, T/C (second compound 100 µM, first compound 0.1 µM) 70.8% | viability, T/C (second compound 100 µM, first compound 0.316 µM) 68% | viability, T/C (second compound 100 µM, first compound 1 µM) 62.5% | viability, T/C (second compound 100 µM, first compound 3.16 µM) 58.1% | viability, T/C (second compound 100 µM, first compound 10 µM) 55.4%
> 10000 nM: IC50 (second compound 10 µM) | IC50 (second compound 31.6 µM) | IC50 (second compound 100 µM)
5380 nM: IC50 (second compound 1 µM)
8270 nM: IC50 (second compound 3.16 µM)
